Source: US12545677B2, “Compounds useful as factor XIa inhibitors” (JANSSEN PHARMACEUTICA NV, priority 2020, dated 2026)

Key:
HepG2 cells = assay: Cell viability, Cell Titer Fluor Assay, parallel to Seahorse assay; assay type: cell-based; conditions: Homo sapiens, 1 h, one-hour incubation, read-out: IC50, cellular viability
Description: The purpose of this assay was to investigate the effect of the compound of formula (I-A) on mitochondrial respiration in HepG2 cells using the Agilent Seahorse XFe96 analyzer. Cell viability was also determined in HepG2 cells in parallel to the Seahorse assay.
Cell viability measurements: HepG2 cells were seeded onto black-walled 96 well plates at a density of 40,000 cells/well in EMEM containing 10% HI FBS and 1× Pen/Strep and allowed to attach overnight. The next day, test compounds were prepared and diluted in EMEM. Following a one-hour incubation with the test article(s), cell viability was assessed using the Cell Titer Fluor Assay (Promega, Cat no. G6081) according to the manufacturer's protocol. The viability assay monitors activity of […], a ubiquitous protease found in live cells.
Data Analyses: Mitochondrial SRC (spare respiratory capacity) was calculated by subtracting the rate of the basal respiration from the rate of the maximal respiration. SRC values were automatically generated by the Report Generator (Agilent Technologies-version 4.0). All experiments were run in triplicate and the mean and standard deviations were calculated for each test concentration. All data were normalized to vehicle controls.
IC50 values were determined by nonlinear regression and fitting of the dose response curves to a […] equation with variable slope (Hill coefficient): […]

HERG current = target: T1, HERG current (Homo sapiens, UniProt Q12809); assay: hERG assay, whole-cell voltage clamp in HEK293 cells; assay type: cell-based; conditions: HEK293 with stable transfection of HERG, 5 minutes of drug application
T1 construct: expressed in transfected cells; host or cells: HEK293
T1 sequence (Q12809 whole entry): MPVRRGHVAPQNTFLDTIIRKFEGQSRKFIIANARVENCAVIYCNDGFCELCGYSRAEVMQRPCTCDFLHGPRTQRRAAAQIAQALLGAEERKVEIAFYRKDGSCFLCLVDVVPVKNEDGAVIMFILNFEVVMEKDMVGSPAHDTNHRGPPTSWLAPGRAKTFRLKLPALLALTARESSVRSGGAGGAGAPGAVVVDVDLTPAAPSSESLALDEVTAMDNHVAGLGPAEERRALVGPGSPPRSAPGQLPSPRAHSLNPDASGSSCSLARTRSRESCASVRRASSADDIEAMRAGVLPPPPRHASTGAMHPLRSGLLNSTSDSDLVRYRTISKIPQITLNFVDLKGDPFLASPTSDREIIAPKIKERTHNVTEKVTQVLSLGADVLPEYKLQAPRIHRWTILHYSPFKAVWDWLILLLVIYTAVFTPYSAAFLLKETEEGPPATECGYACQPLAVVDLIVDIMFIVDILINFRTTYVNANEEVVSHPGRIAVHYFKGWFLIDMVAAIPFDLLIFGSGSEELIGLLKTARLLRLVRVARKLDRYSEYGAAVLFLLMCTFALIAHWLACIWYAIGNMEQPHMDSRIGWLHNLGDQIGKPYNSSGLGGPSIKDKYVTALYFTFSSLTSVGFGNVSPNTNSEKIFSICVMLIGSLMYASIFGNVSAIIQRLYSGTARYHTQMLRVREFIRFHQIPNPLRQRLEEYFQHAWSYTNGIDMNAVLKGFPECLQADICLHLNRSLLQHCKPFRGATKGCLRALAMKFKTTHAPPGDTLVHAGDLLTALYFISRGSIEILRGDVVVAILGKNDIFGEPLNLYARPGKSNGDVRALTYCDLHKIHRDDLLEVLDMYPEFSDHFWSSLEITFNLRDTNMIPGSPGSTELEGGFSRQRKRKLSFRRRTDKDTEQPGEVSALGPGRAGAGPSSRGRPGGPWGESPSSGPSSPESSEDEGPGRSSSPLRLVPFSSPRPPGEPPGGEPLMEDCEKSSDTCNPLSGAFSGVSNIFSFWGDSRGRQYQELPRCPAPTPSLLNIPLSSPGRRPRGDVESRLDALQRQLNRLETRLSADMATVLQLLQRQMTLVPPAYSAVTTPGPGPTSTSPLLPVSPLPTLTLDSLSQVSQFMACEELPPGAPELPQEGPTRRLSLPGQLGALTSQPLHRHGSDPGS
From the text: Biological Example 6: hERG Assay
HERG (human ether-à-go-go-related gene) encodes a potassium channel with biophysical properties similar to the rapidly activating delayed-rectifier K^+ current (IKr) in cardiac myocytes. This IKr current contributes to the K^+ current responsible for the repolarization phase of the cardiac action potential. Blockage of this current may prolong action potential duration and cause long QT-syndrome. The development of QT prolongation can lead to the occurrence of ventricular arrhythmias such as Torsades de Pointes, which can result in sudden death. […]
Electrophysiological measurements: The membrane current of the cells was measured at distinct membrane potentials with the patch clamp technique by means of an EPC-9 patch clamp amplifier. […] The HERG current (K+-selective outward current) was determined as the maximal tail current at −40 mV after a 2 second depolarization to +60 mV. […] Thereafter test pulses were given for 5 minutes to quantify the HERG current in control conditions. […] The effect of the test compound was measured after 5 minutes of drug application. […]
Measurements: The HERG current was determined as the maximal tail current at −40 mV after a 2 second depolarization to +60 mV, starting from a holding potential of −80 mV. […]

[1] = Reactive metabolite study in human liver microsomes (GSH/KCN trapping); assay type: in vitro ADME; conditions: human liver microsomes 1 mg/mL protein, 10 μM substrate, NADPH, 1 mM GSH, 1 mM KCN, 37° C., 60 min
Description: Reactive Metabolite Study in Human Liver Microsomes
The compound of formula (I-A) was assessed for bioactivation in HLM using GSH and KCN as trapping agents. The compound was incubated in human liver microsomes supplemented with NADPH, KCN and GSH at 37° C. for 60 min. The incubations were conducted with 1 mg/mL protein, 10 μM substrate, 1 mM GSH (non-labeled and labeled at 3:1) and KCN 1 mM (non-labeled and labeled at 3:1) in a total volume of 1 mL. Nefazodone (10 μM) was incubated under the same conditions as a positive control. After incubations, protein precipitation was performed for extraction of the metabolites by mixing with 5× volume of acetonitrile. The proteins were pelleted by centrifugation (3000 rpm, 10 minutes, 4° C.) and the supernatants were transferred into clean test tubes and evaporated to dryness under a gentle stream of nitrogen. The resulting residues were reconstituted in 300 μL of solvent mixture of water:acetonitrile (8:2 v/v) containing 0.1% formic acid prior to filtration using 0.45 μm nylon filter at 10,000×g at room temperature for 3 minutes. The filtrate was transferred to a 96-well plate for liquid chromatography/tandem mass spectrometric (LC-MS/MS) analysis.
LC-MS/MS analysis: Agilent 1260 Infinity UHPLC was coupled to a Bruker Q-TOF. The mass spectrometers were operated in a positive electrospray ionization mode. […]

For `O=C1C=C(c2c(-n3cnnn3)ccc(Cl)c2F)C[C@H]2CC[C@@H](c3ncc(-c4ccnc(CO)c4F)[nH]3)N12` [Compound of formula (I-A), (3S,8aR)-7-(3-Chloro-2-fluoro-6-(1H-tetrazol-1-yl)phenyl)-3-(5-(3-fluoro-2-(hydroxymethyl)pyridin-4-yl)-1H-imidazol-2-yl)-2,3,8,8a-tetrahydroindolizin-5(1H)-one], which IC50 (HepG2 cells) is on record?
Its IC50 is over 100 µM.

What about the IC50 (HERG current) of the same compound?
The IC50 was over 30 µM.

What about the “formation of GSH adducts or KCN adducts” value [1] of the same compound?
The value was “did not form GSH adducts or KCN adducts”.
